# Tests used:
# [1] = molecular target: T1, WRN helicase (His-WRN527-072) (Homo sapiens, UniProt Q14191); assay: WRN Helicase Assay (fluorescent forked DNA); format: biochemical; details: 30 min pre-incubation, 60 min reaction at room temperature
# T1 construct: in-house produced His-WRN527-072 was used; His (N); made in house
# Experimental: To assess the inhibition properties of the invented compounds on WRN helicase activity, a fluorescent assay using forked DNA was set up. In the helicase assay, in-house produced His-WRN527-072 was used. […] 2.5-fold serial dilution of test compounds were prepared for 7 gradient points with DMSO, and then 1.5 μl of each concentration were added to 48.5 μl of assay buffer (25 mM Tris-HCl (pH 8.0), 50 mM NaCl, 2 mM MgCl2, 1 mM DTT, 0.0500 Tween-20, and 2.5 μg/ml BSA) for further dilution. […] Each concentration of the compounds was added as triplicate in the plate. Controls were included in the test to validate the assay. […] Forked DNA and ATP were diluted into 300 nM and 6 mM, respectively, with assay buffer. To initiate the reaction, 5 μl of the dsDNA and ATP solution were added to the assay plate. After 60 minutes room temperature incubation, the plate was transferred to Victor Nivo multimode plate reader (Perkin Elmer, Waltham, MA) and the fluorescence outputs were monitored. GraphPad Prism 9 (GraphPad Software, San Diego, CA) was used to carry out the dose-response curves, deriving IC50s.
# [2] = test system: SW48; assay: SW48 cell assay; format: cell-based; details: Homo sapiens
# [3] = molecular target: T2, WRN ATPase (Homo sapiens, UniProt Q14191); assay: WRN ATPase Assay (ADP-Glo); format: biochemical; details: DNA dependent WRN ATPase activity
# T2 construct: in-house produced His-WRN527-072 was used; His (N); made in house
# Experimental: WRN ATPase Assay To evaluate the inhibition properties of the invented compounds on DNA dependent WRN ATPase activity, an ATPase assay using ADP-Glo assay kit (Promega, Madison, WI) was established. In the ATPase assay, the same WRN protein and DNA substrate as described in helicase assay were used. The serial dilution of the compounds in DMSO was same as helicase assay. […] All the test wells were set as triplicate. Afterwards, 2.5 μl of assay buffer containing 400 nM DNA substrate and 4 mM ATP were added to each well and incubated for 60 minutes. The protein-free control (maximal inhibition) and no-compound control (no inhibition) were included in the test. To stop the reaction and deplete the excessive ATP, 10 μl of the ADP-Glo™ Reagent from the assay kit were added and incubated for 40 minutes. Then, 20 μl of the ATP detection reagent was added. After 30 minutes incubation, the luminescence was measured using Victor Nivo multimode plate reader (Perkin Elmer, Waltham, MA). Dose-response curves, spanning IC50s, were generated by GraphPad Prism 9 (GraphPad Software, San Diego, CA).
# T1 sequence (Q14191 527-1072 limits assumed): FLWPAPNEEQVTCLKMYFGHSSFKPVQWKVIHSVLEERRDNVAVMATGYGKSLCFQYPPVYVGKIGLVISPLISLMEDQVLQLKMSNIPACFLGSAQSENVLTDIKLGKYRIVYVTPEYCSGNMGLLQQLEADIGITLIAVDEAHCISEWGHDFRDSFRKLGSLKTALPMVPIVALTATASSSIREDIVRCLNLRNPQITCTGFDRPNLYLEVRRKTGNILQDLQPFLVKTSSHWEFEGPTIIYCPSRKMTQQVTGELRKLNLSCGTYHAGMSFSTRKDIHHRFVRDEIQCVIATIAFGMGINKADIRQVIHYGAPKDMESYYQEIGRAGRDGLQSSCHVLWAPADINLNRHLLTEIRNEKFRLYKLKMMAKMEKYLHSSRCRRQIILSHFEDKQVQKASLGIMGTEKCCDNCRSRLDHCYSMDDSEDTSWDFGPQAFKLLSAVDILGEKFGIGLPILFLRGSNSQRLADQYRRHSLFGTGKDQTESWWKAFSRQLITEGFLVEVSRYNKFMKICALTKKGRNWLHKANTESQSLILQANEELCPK
# T2 sequence (Q14191 527-1072 limits assumed): as above
SMILES,IC50 [1] [nM],IC50 [2] [nM],IC50 [3] [nM]
CCc1c(N2C3CC2CN(C(=O)c2ncnc(C)c2O)C3)c(=O)n2nc(C3=CCOCC3)nc2n1CC(=O)Nc1ccc(C(F)(F)F)cc1Cl [Compound 1],48000,–,–
CCc1c(N2CC3CC2CN3C(=O)c2ncnc(C)c2O)c(=O)n2nc(C3=CCOCC3)nc2n1CC(=O)Nc1ccc(C(F)(F)F)cc1Cl (centres unmarked) [Compound 2],6.4,5740,–
CCc1c(N2CC3CCC(C2)N3C(=O)c2ncccc2O)c(=O)n2nc(C3=CCOCC3)nc2n1CC(=O)Nc1ccc(C(F)(F)F)cc1Cl [Compound 4],4.5,1350,–
CCc1c(N2CC3CCC(C2)N3C(=O)c2ncccc2O)c(=O)n2nc(C3=CCOCC3)nc2n1CC(=O)Nc1ccc(C(F)(F)F)nc1Cl [Compound 8],5.9,1630,–
CCc1c(N2CC3CCC(C2)N3C(=O)c2ncnc(C)c2O)c(=O)n2nc(C3=CCOCC3)nc2n1CC(=O)Nc1ccc(C(F)(F)F)nc1Cl [Compound 15],9.2,3490,–
CCc1c(N2[C@@H]3CC[C@H]2CN(C(=O)c2ncnc(C)c2O)C3)c(=O)n2nc(C3=CCOCC3)nc2n1CC(=O)Nc1ccc(C(F)(F)F)cc1C [Compound 17],3.5,183,–
CCc1c(N2CCCN(C(=O)c3ncnc(C)c3O)CC2)c(=O)n2nc(C3=CCOCC3)nc2n1CC(=O)Nc1ccc(C(F)(F)F)cc1Cl [Compound 19],5.1,818,–
CCc1c(N2CCC(NC(=O)c3ncnc(C)c3O)C2)c(=O)n2nc(C3=CCOCC3)nc2n1CC(=O)Nc1ccc(C(F)(F)F)cc1C (centres unmarked) [Compound 23],6.3,1870,–
CCc1c(N2CCN(Cc3cccn(C)c3=O)C(=O)C2)c(=O)n2nc(C3=CCOCC3)nc2n1CC(=O)Nc1ccc(C(F)(F)F)cc1C [Compound 68],5000,–,–
CCc1c(N2CC3CC(C(=O)c4ncnc(C)c4O)C(C2)N3)c(=O)n2nc(C3=CCOCC3)nc2n1CC(=O)Nc1ccc(C(F)(F)F)cc1Cl (centres unmarked) [Compound 186],2.7,716,13
"CCc1c(N2CC3CC(C2)N3C(=O)c2ncnc(C)c2O)c(=O)n2nc(C3=CCOCC3)nc2n1CC(=O)Nc1ccc(C(F)(F)F)cc1C [Compound 187, 2-(2-(3,6-dihydro-2H-pyran-4-yl)-5-ethyl-6-(6-(5-hydroxy-6-methylpyrimidine-4-carbonyl)-3,6-diazabicyclo[3.1.1]heptan-3-yl)-7-oxo-[1,2,4]triazolo [1,5-a]pyrimidin-4(7H)-yl)-N-(2-methyl-4-(trifluoromethyl)phenyl)acetamide]",8.6,4500,–
"CCc1c(N2C3CCC2CN(C(=O)c2ncccc2O)C3)c(=O)n2nc(C3=CCOCC3)nc2n1CC(=O)Nc1ccc(C(F)(F)F)cc1Cl [Compound 189, N-(2-chloro-4-(trifluoromethyl)phenyl)-2-(2-(3,6-dihydro-2H-pyran-4-yl)-5-ethyl-6-(3-(3-hydroxypicolinoyl)-3,8-diazabicyclo[3.2.1]octan-8-yl)-7-oxo-[1,2,4]triazolo[1,5-a]pyrimidin-4(7H)-yl)acetamide]",4.6,1110,–
"CCc1c(C2=CCN(C(=O)c3ncnc(C)c3O)CCC2)c(=O)n2nc(C3=CCOCC3)nc2n1CC(=O)Nc1ccc(C(F)(F)F)cc1Cl [Compound 190, N-(2-chloro-4-(trifluoromethyl)phenyl)-2-(2-(3,6-dihydro-2H-pyran-4-yl)-5-ethyl-6-(1-(5-hydroxy-6-methylpyrimidine-4-carbonyl)-2,5,6,7-tetrahydro-1H-azepin-4-yl)-7-oxo-[1,2,4]triazolo[1,5-a]pyrimidin-4(7H)-yl)acetamide]",5.2,2240,–
"CCc1c(N2CCN(C(=O)c3ncnc(C)c3O)CC2)c(=O)n2nc(C3C4CC(OC)CC43)nc2n1CC(=O)Nc1ccc(C(F)(F)F)cc1Cl (centres unmarked) [Compound 191, N-(2-chloro-4-(trifluoromethyl)phenyl)-2-(5-ethyl-6-(4-(5-hydroxy-6-methylpyrimidine-4-carbonyl)piperazin-1-yl)-2-(3-methoxybicyclo[3.1.0]hexan-6-yl)-7-oxo-[1,2,4]triazolo[1,5-a]pyrimidin-4(7H)-yl)acetamide]",3.7,–,–
"CCc1c(N2CCN(C(=O)c3ncnc(C)c3O)CC2)c(=O)n2nc(C3C4COCC43)nc2n1CC(=O)Nc1ccc(C(F)(F)F)cc1Cl (centres unmarked) [Compound 192, 2-(2-(3-oxabicyclo[3.1.0]hexan-6-yl)-5-ethyl-6-(4-(5-hydroxy-6-methylpyrimidine-4-carbonyl)piperazin-1-yl)-7-oxo-[1,2,4]triazolo[1,5-a]pyrimidin-4(7H)-yl)-N-(2-chloro-4-(trifluoromethyl)phenyl)acetamide]",8.4,4180,–
"CCc1c(C2=CCN(C(=O)c3ncnc(C)c3O)CCC2)c(=O)n2nc(C3CCOCC3)nc2n1CC(=O)Nc1ccc(C(F)(F)F)cc1Cl [Compound 196, N-(2-chloro-4-(trifluoromethyl)phenyl)-2-(5-ethyl-6-(1-(5-hydroxy-6-methylpyrimidine-4-carbonyl)-2,5,6,7-tetrahydro-1H-azepin-4-yl)-7-oxo-2-(tetrahydro-2H-pyran-4-yl)-[1,2,4]triazolo[1,5-a]pyrimidin-4(7H)-yl)acetamide]",1280,–,–
CCc1c(N2CCN(C(=O)c3ncccc3O)CC2)c(=O)n2nc(C3=CCOCC3)nc2n1CC(=O)Nc1ccc(Cl)c(C(F)(F)F)c1 [Compound 197],3.8,28,–
CCc1c(N2CCN(C(=O)c3ncccc3O)CC2)c(=O)n2nc(C3=CCOCC3)nc2n1CC(=O)Nc1ccc(OC(F)(F)F)cc1 [Compound 198],2.3,129,–
CCc1c(N2CC3CCC(C2)N3C(=O)c2ncccc2O)c(=O)n2nc(C3=CCOCC3)nc2n1CC(=O)Nc1ccc(Cl)c(C(F)(F)F)c1 [Compound 199],9.3,3350,–
CCc1c(N2CC3CCC(C2)N3C(=O)c2ncccc2O)c(=O)n2nc(C3=CCOCC3)nc2n1CC(=O)Nc1ccc(OC(F)(F)F)cc1 [Compound 200],4.4,7240,–
CCc1c(N2CC3CCC(C2)N3C(=O)c2nccc(Cl)c2O)c(=O)n2nc(C3=CCOCC3)nc2n1CC(=O)Nc1ccc(C(F)(F)F)nc1Cl [Compound 201],7.3,802,–
"CCc1c(N2CC3CCC(C2)N3C(=O)c2ncccc2O)c(=O)n2nc(C3=CCC(OC)CC3)nc2n1CC(=O)Nc1ccc(C(F)(F)F)cc1C (centres unmarked) [Compound 202, 2-(5-ethyl-6-(8-(3-hydroxypicolinoyl)-3,8-diazabicyclo[3.2.1]octan-3-yl)-2-(4-methoxycyclohex-1-en-1-yl)-7-oxo-[1,2,4]triazolo[1,5-a]pyrimidin-4(7H)-yl)-N-(2-methyl-4-(trifluoromethyl)phenyl)acetamide]",7,1040,–
"CCc1c(N2CC3CCC(C2)N3C(=O)c2ncccc2O)c(=O)n2nc(C3=CCN(CC(F)F)CC3)nc2n1CC(=O)Nc1ccc(C(F)(F)F)cc1C [Compound 203, 2-(2-(1-(2,2-difluoroethyl)-1,2,3,6-tetrahydropyridin-4-yl)-5-ethyl-6-(8-(3-hydroxypicolinoyl)-3,8-diazabicyclo[3.2.1]octan-3-yl)-7-oxo-[1,2,4]triazolo[1,5-a]pyrimidin-4(7H)-yl)-N-(2-methyl-4-(trifluoromethyl)phenyl)acetamide]",8.7,967,–
CCc1c(N2CC3CCC(C2)N3C(=O)c2ncccc2O)c(=O)n2nc(-c3cnn(C)c3)nc2n1CC(=O)Nc1ccc(C(F)(F)F)cc1C [Compound 204],7.1,1790,–
CCc1c(N2CC3CC(F)C(C2)N3C(=O)c2ncccc2O)c(=O)n2nc(C3=CCOCC3)nc2n1CC(=O)Nc1ccc(C(F)(F)F)cc1C (centres unmarked) [Compound 205],10.9,2370,–
CCc1c(N2C3CCC2CN(C(=O)c2ncccc2O)C3)c(=O)n2nc(C3=CCOCC3)nc2n1CC(=O)Nc1ccc(C(F)(F)F)cc1C [Compound 206],3.6,1140,–
CCc1c(N2C3CCC2CN(C(=O)c2ncccc2O)C3)c(=O)n2nc(-c3cnn(C)c3)nc2n1CC(=O)Nc1ccc(C(F)(F)F)cc1C [Compound 207],5.1,1140,–
CCc1c(N2C3CCC2CN(C(=O)c2ncnc(C)c2O)C3)c(=O)n2nc(-c3cnn(C)c3)nc2n1CC(=O)Nc1ccc(C(F)(F)F)cc1C [Compound 208],6.2,440,–

# From US20260199351A1, “TRIAZOLE COMPOUNDS, PREPARATION METHODS AND MEDICINAL USES THEREOF” (Jiangsu Hengrui Pharmaceuticals Co., Ltd., priority 2022, published 2026)
